Reference: patent publication US20230407243A1, “GENETIC PLATFORM TO INVESTIGATE THE FUNCTIONS OF BACTERIAL DRUG EFFLUX PUMPS” (priority 2022, published 2023)

Tests used:
Assay type in all cases: cell-based, Escherichia coli
EKO-35 araC::acrB = experiment: MIC susceptibility profiling, efflux platform; settings: Escherichia coli; Table 13A; non-porinated; technical duplicate; read-out: Minimum Inhibitory Concentration, EKO-35 araC::acrB
Procedure, shortened: (§1)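 LB o/n 37 °C → PBS pH 7.4, OD600 ~1.0 → 1/2000 in MHB II; 2-fold cmpd series, duplicate, DMSO ctrl; 18 h 37 °C, 900 rpm; OD600 post minus pre.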

EKO-35 araC::acrD = experiment: MIC susceptibility profiling, efflux platform; settings: Escherichia coli; Table 13A; non-porinated; technical duplicate; read-out: Minimum Inhibitory Concentration, EKO-35 araC::acrD
Procedure, shortened: as §1

EKO-35 araC::emrAB = experiment: MIC susceptibility profiling, efflux platform; settings: Escherichia coli; Table 13B; non-porinated; technical duplicate; read-out: Minimum Inhibitory Concentration, EKO-35 araC::emrAB
Procedure, shortened: as §1

EKO-35 araC::emrKY = experiment: MIC susceptibility profiling, efflux platform; settings: Escherichia coli; Table 13B; non-porinated; technical duplicate; read-out: Minimum Inhibitory Concentration, EKO-35 araC::emrKY
Procedure, shortened: as §1

EKO-35 araC::macAB = experiment: MIC susceptibility profiling, efflux platform
Procedure, shortened: as §1

EKO-35 araC::mdtEF = experiment: MIC susceptibility profiling, efflux platform; settings: Escherichia coli; Table 13A; non-porinated; technical duplicate; read-out: Minimum Inhibitory Concentration, EKO-35 araC::mdtEF
Procedure, shortened: as §1

[1] = tested on: EKO-35 araC::mexCD (MexCD from P. aeruginosa); experiment: MIC susceptibility profiling, efflux platform; settings: Table 13B; non-porinated; technical duplicate; read-out: Minimum Inhibitory Concentration, EKO-35 araC::mexCD
Procedure, shortened: as §1

[2] = tested on: EKO-35 porinated strain expressing acrB; experiment: Checkerboard synergy (FICI), porinated strain
Procedure: (§2) Synergy measurement using checkerboard analysis was performed in 96-well microtiter plates using the microdilution broth method, according to CLSI guidelines (Patel J. B., 2015). The cell inocula were prepared using the colony resuspension method. The minimum inhibitory concentrations (MICs) were defined as the lowest concentration that provided no growth, as determined by measurement of the OD600nm using a Synergy H1 microplate reader (BioTek). Susceptibility testing was performed in MHB II with a final volume of 100 μL. PAI3N (Bachem Americas) was solubilized in MHB II. […] Solvent controls were included in each plate.
(§3) The Fractional Inhibitory Concentration Index (FICI) was used to assess the synergy of PAI3N in combination with different antibiotics. The FICI represents the ΣFIC of each drug. The FICI for each drug was calculated using the following formula: FICI=FICA+FICB=(CA/MICA)+(CB/MICB). Where MICA and MICB are the MICs of drugs A (PAI3N/NMP) and B (antibiotic) alone, and CA and CB are the MICs of the drugs in combination. The effects of PAβN or NMP in combination with antibiotics were classified as: synergistic (FICI<0.5), additive (FICI>0.5-1.0), indifferent (FICI>1.0-2.0), and antagonistic (FICI>2.0). Fold increases in resistance provided by efflux pumps were calculated by dividing the MIC values of strains expressing efflux pumps by the MIC value of EKO-35.

[3] = tested on: EKO-35-Pore acrBD408A (functionally inactive AcrB variant); experiment: Checkerboard synergy (FICI), porinated strain
Procedure: as §2, §3

EKO-35-Pore = experiment: Checkerboard synergy (FICI), porinated strain
Procedure: as §2, §3

wild-type K-12-Pore = experiment: Checkerboard synergy (FICI), porinated strain
Procedure: as §2, §3

[4] = EKO-35 acrB Pore, NMP + antibiotic
[5] = EKO-35 acrB Pore, PAβN + antibiotic
[6] = strain EKO-35 acrB Pore, NMP + antibiotic
[7] = EKO-35 acrBD408A Pore, NMP + antibiotic
[8] = EKO-35 acrBD408A Pore, PAβN + antibiotic
[9] = strain EKO-35 acrBD408A Pore, NMP + antibiotic
[10] = porinated efflux-deficient strains
[11] = strain EKO-35 Pore, NMP + antibiotic
[12] = strain K-12 Pore, NMP + antibiotic

Question: Which MIC (EKO-35 araC::acrB) does the source give for `CC[C@H]1OC(=O)[C@H](C)[C@@H](O[C@H]2C[C@@](C)(OC)[C@@H](O)[C@H](C)O2)[C@H](C)[C@@H](O[C@@H]2O[C@H](C)C[C@H](N(C)C)[C@H]2O)[C@](C)(O)C[C@@H](C)C(=O)[C@H](C)[C@@H](O)[C@]1(C)O` [erythromycin] here?
Answer: Its MIC is 100 mg/L.

Question: And the MIC (EKO-35 araC::acrD)?
Answer: Its MIC is 3.12 mg/L.

Question: What about the MIC (EKO-35 araC::emrAB) of the same compound?
Answer: Its MIC is 3.12 mg/L.

Question: What about the MIC (EKO-35 araC::emrKY) of the same compound?
Answer: Its MIC is 3.12 mg/L.

Question: And the MIC (EKO-35 araC::macAB; Escherichia coli, Table 13B, non-porinated, technical duplicate, read-out: Minimum Inhibitory Concentration, EKO-35 araC::macAB)?
Answer: Its MIC is 12.5 mg/L.

Question: And the “efflux pump-mediated resistance vs EKO-35” value (EKO-35 araC::macAB; MacAB)?
Answer: The value was “specific”.

Question: And the MIC (EKO-35 araC::mdtEF)?
Answer: The MIC was 50 mg/L.

Question: And the MIC [1]?
Answer: Its MIC is 25 mg/L.

Question: What about the Effect [2, 4] of the same compound?
Answer: The Effect was “Additive”.

Question: What about the FICI [2, 4] of the same compound?
Answer: The FICI was 0.563.

Question: And the Effect [2, 5]?
Answer: Its Effect is “Synergistic”.

Question: What about the FICI [2, 5] of the same compound?
Answer: The FICI was 0.078.

Question: What about the “MICb Alone” value ([2]; EKO-35 acrB Pore, antibiotic alone (PAβN checkerboard)) of the same compound?
Answer: The value was 32 µg/mL.

Question: What about the “MICb Combined” value ([2]; EKO-35 acrB Pore, antibiotic in combination with PAβN) of the same compound?
Answer: Its value is 0.5 µg/mL.

Question: What about the Effect [2, 6] of the same compound?
Answer: Its Effect is “Additive (additive (FICI >0.5-1.0))”.

Question: And the FICI [2, 6]?
Answer: Its FICI is 0.563.

Question: And the “MICb Alone” value ([2]; strain EKO-35 acrB Pore, antibiotic alone)?
Answer: The value was 8 µg/mL.

Question: What about the “MICb Combined” value ([2]; strain EKO-35 acrB Pore, antibiotic in combination with NMP) of the same compound?
Answer: Its value is 0.5 µg/mL.

Question: And the Effect [3, 7]?
Answer: Its Effect is “Additive”.

Question: And the FICI [3, 7]?
Answer: Its FICI is 0.735.

Question: And the Effect [3, 8]?
Answer: Its Effect is “Additive”.

Question: And the FICI [3, 8]?
Answer: Its FICI is 0.735.

Question: And the “MICb Alone” value ([3]; EKO-35 acrBD408A Pore, antibiotic alone (PAβN checkerboard))?
Answer: Its value is 0.13 µg/mL.

Question: What about the “MICb Combined” value ([3]; EKO-35 acrBD408A Pore, antibiotic in combination with PAβN) of the same compound?
Answer: The value was 0.063 µg/mL.

Question: What about the Effect [3, 9] of the same compound?
Answer: Its Effect is “Additive (additive (FICI >0.5-1.0))”.

Question: What about the FICI [3, 9] of the same compound?
Answer: The FICI was 0.735.

Question: What about the “MICb Alone” value ([3]; strain EKO-35 acrBD408A Pore, antibiotic alone) of the same compound?
Answer: Its value is 0.13 µg/mL.

Question: And the “MICb Combined” value ([3]; strain EKO-35 acrBD408A Pore, antibiotic in combination with NMP)?
Answer: Its value is 0.063 µg/mL.

Question: What about the Effect (EKO-35-Pore; EKO-35 Pore, NMP + antibiotic) of the same compound?
Answer: The Effect was “Additive”.

Question: And the FICI (EKO-35-Pore; EKO-35 Pore, NMP + antibiotic)?
Answer: Its FICI is 0.770.

Question: And the Effect (EKO-35-Pore; EKO-35 Pore, PAβN + antibiotic)?
Answer: Its Effect is “Additive”.

Question: And the FICI (EKO-35-Pore; EKO-35 Pore, PAβN + antibiotic)?
Answer: Its FICI is 0.610.

Question: What about the “MICb Alone” value (EKO-35-Pore; EKO-35 Pore, antibiotic alone (PAβN checkerboard)) of the same compound?
Answer: Its value is 0.13 µg/mL.

Question: And the “MICb Combined” value (EKO-35-Pore; EKO-35 Pore, antibiotic in combination with PAβN)?
Answer: The value was 0.063 µg/mL.

Question: And the “interaction of NMP in combination with the labelled antibiotic (FICI)” value (EKO-35-Pore; [10])?
Answer: The value was “no longer synergistic”.

Question: And the “interaction of PAβN in combination with the labelled antibiotic (FICI)” value (EKO-35-Pore; [10])?
Answer: Its value is “no longer synergistic”.

Question: And the Effect (EKO-35-Pore; [11])?
Answer: Its Effect is “Additive (additive (FICI >0.5-1.0))”.

Question: And the FICI (EKO-35-Pore; [11])?
Answer: The FICI was 0.770.

Question: And the “MICb Alone” value (EKO-35-Pore; strain EKO-35 Pore, antibiotic alone)?
Answer: Its value is 0.25 µg/mL.

Question: And the “MICb Combined” value (EKO-35-Pore; strain EKO-35 Pore, antibiotic in combination with NMP)?
Answer: Its value is 0.13 µg/mL.

Question: What about the FICI (wild-type K-12-Pore; K-12 Pore, NMP + antibiotic) of the same compound?
Answer: The FICI was 1.000.

Question: What about the Effect (wild-type K-12-Pore; K-12 Pore, PAβN + antibiotic) of the same compound?
Answer: Its Effect is “Synergistic”.

Question: What about the “MICb Alone” value (wild-type K-12-Pore; K-12 Pore, antibiotic alone (PAβN checkerboard)) of the same compound?
Answer: The value was 4 µg/mL.

Question: What about the “MICb Combined” value (wild-type K-12-Pore; K-12 Pore, antibiotic in combination with PAβN) of the same compound?
Answer: The value was 0.25 µg/mL.

Question: What about the Effect (wild-type K-12-Pore; [12]) of the same compound?
Answer: The Effect was “— (indifferent (FICI >1.0))”.

Question: What about the FICI (wild-type K-12-Pore; [12]) of the same compound?
Answer: The FICI was 1.000.

Question: What about the “MICb Alone” value (wild-type K-12-Pore; strain K-12 Pore, antibiotic alone) of the same compound?
Answer: Its value is 16 µg/mL.

Question: And the “MICb Combined” value (wild-type K-12-Pore; strain K-12 Pore, antibiotic in combination with NMP)?
Answer: The value was 8 µg/mL.
